Patent US8022091B2, “Triazole derivative” (Taisho Pharmaceutical Co., Ltd., priority 2006, dated 2011)

Key:
human Edg-1 (S1P1) = target: T1, human Edg-1 (S1P1) (Homo sapiens, UniProt P21453); test: S1P1 binding assay: inhibition of [33P]-S1P binding to membrane fraction of HEK-293 cells transferred with the human Edg-1 (S1P1) gene; settings: for IC50: [33P]-S1P 0.1 nM, human Edg-1 (S1P1) HEK-293 membrane fraction, 1 h at 30° C., read-out: IC50 (concentration at which binding in the absence of the test compound was inhibited by 50%)
T1 construct: expressed in transfected cells; host or cells: HEK-293
T1 sequence (P21453 whole entry): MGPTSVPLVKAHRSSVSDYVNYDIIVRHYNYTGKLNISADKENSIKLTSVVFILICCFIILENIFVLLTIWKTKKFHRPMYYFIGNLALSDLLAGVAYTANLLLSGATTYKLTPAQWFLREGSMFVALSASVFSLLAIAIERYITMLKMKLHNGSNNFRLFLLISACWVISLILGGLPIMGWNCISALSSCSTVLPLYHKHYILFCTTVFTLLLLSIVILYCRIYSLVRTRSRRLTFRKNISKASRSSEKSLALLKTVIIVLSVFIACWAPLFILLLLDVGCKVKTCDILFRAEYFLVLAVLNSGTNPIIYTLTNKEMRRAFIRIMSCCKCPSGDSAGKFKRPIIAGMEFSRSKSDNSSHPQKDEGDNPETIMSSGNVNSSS
Procedure, shortened: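 Membranes from S1P1-transfected HEK-293 cells incubated 1 h at 30° C in pH 7.4 Tris buffer with fatty acid-free BSA, 0.1 nM [33P]-S1P and test compound (0.1% DMSO). Filter-bound radioactivity was counted; inhibition corrected for binding to untransfected-cell membranes, and IC50 derived from concentration series.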

[1] = test compound at 10 μM, inhibition of [33P]-S1P binding to the membrane fraction of HEK-293 cells expressing human Edg-1 (S1P1)
[2] = test compound 10 μM, inhibition of [33P]-S1P binding, membrane fraction

SMILES | inhibition at 10 µM (human Edg-1 (S1P1); [1]) [%] | Binding assay (membrane) % inhibition (10 μM) (human Edg-1 (S1P1); [1]) [%] | melting point [°C] | IC50 (human Edg-1 (S1P1)) [µM] | inhibition at 10 µM (human Edg-1 (S1P1); [2]) [%]
CCn1c(Oc2ccccc2)nnc1[C@@H](Cc1ccccc1)NS(=O)(=O)c1ccc(Cl)c(Cl)c1 [Compound 1] | 93.4 | 100.8 | 182 to 184 |  | 
CCn1c(Sc2ccccc2)nnc1[C@@H](Cc1ccccc1)NS(=O)(=O)c1ccc(Cl)c(Cl)c1 [Compound 2] | 103 | 97.8 | 134 to 138 |  | 
CCn1c(Oc2ccc(C)cc2)nnc1[C@@H](C)NS(=O)(=O)c1ccc(Cl)c(Cl)c1 [Compound 3] | 98.7 |  | 183.5 to 187.5 | 0.0042 | 
CCn1c(Oc2ccccc2C)nnc1[C@@H](C)NS(=O)(=O)c1ccc(Cl)c(Cl)c1 [Compound 4] | 95.7 |  | 198.5 to 200.5 |  | 
CCn1c(Oc2cccc(C)c2)nnc1[C@@H](C)NS(=O)(=O)c1ccc(Cl)c(Cl)c1 [Compound 5] | 97.3 |  | 160 to 161 | ≤ 0.035 | 
CCn1c(Oc2ccccc2Cl)nnc1[C@@H](C)NS(=O)(=O)c1ccc(Cl)c(Cl)c1 [Compound 6] | 98.2 |  | 180 to 190 |  | 
CCn1c(Oc2ccccc2)nnc1[C@@H](C)NS(=O)(=O)c1ccc(Cl)c(Cl)c1 [Compound 7] | 99.4 |  | 159.5 to 161.5 | 0.0355 | 
CCn1c(Oc2ccc(Cl)cc2)nnc1[C@@H](C)NS(=O)(=O)c1ccc(Cl)c(Cl)c1 [Compound 8] | 100 |  | 179 to 189.5 | 0.0185 | 
CCn1c(Oc2cccc(Cl)c2)nnc1[C@@H](C)NS(=O)(=O)c1ccc(Cl)c(Cl)c1 [Compound 9] | 100 |  | 145 to 148 |  | 
CCn1c(Oc2ccc(C)cc2)nnc1[C@@H](Cc1ccccc1)NS(=O)(=O)c1ccc(Cl)c(Cl)c1 [Compound 10] | 99.8 |  | 182.5 to 184.5 | 0.0175 | 
CCn1c(Oc2ccc(OC)cc2)nnc1[C@@H](C)NS(=O)(=O)c1ccc(Cl)c(Cl)c1 [Compound 11] | 98.5 |  | 155 to 160 | 0.0089 | 
CCn1c(Oc2ccc(F)cc2)nnc1[C@@H](C)NS(=O)(=O)c1ccc(Cl)c(Cl)c1 [Compound 12, 3,4-Dichloro-N-{(R)-1-[4-ethyl-5-(4-fluorophenoxy)-4H-[1,2,4]-triazol-3-yl]ethyl}benzenesulfonamide] | 99.2 |  | 190 to 192 | 0.02 | 
CCn1c(Oc2ccc(Cl)c(Cl)c2)nnc1[C@@H](C)NS(=O)(=O)c1ccc(Cl)c(Cl)c1 [Compound 13] | 102 |  | 152 to 156 | ≤ 0.035 | 
CCn1c(Oc2ccc(C)c(C)c2)nnc1[C@@H](C)NS(=O)(=O)c1ccc(Cl)c(Cl)c1 [Compound 14] | 99.5 |  | 161 to 162.5 | 0.0064 | 
CCn1c(Oc2ccc(C3CCCCC3)cc2)nnc1[C@@H](C)NS(=O)(=O)c1ccc(Cl)c(Cl)c1 [Compound 15] | 103 |  | 200 to 205 | 0.0325 | 
CCn1c(Oc2ccc(OC)c(OC)c2)nnc1[C@@H](C)NS(=O)(=O)c1ccc(Cl)c(Cl)c1 [Compound 16] | 101 |  | 125 to 127 | ≤ 0.035 | 
CCn1c([C@@H](C)NS(=O)(=O)c2ccc(Cl)c(Cl)c2)nnc1S(=O)(=O)c1ccc(C)cc1 [Compound 57, 3,4-Dichloro-N-[(R)-1-[4-ethyl-5(4-methylbenzenesulfonyl)-4H-[1,2,4]triazol-3-yl]-ethyl]-benzenesulfonamide] |  |  | 164 to 165 |  | 
CCn1c(Oc2cccc(N3CCN(C)CC3)c2)nnc1[C@@H](C)NS(=O)(=O)c1ccc(F)c2ccccc12 [Compound 648] |  |  |  |  | 108
CCOc1ccc(NC(C)=O)cc1S(=O)(=O)N[C@H](C)c1nnc(Oc2cccc(N3CCN(C)CC3)c2)n1CC [Compound 649] |  |  |  |  | 64.7
CCc1ccc(OC)c(S(=O)(=O)N[C@H](C)c2nnc(Oc3cccc(N4CCN(C)CC4)c3)n2CC)c1 [Compound 652] |  |  |  |  | 91.9

More lines, now with the values ahead:

inhibition at 10 µM (human Edg-1 (S1P1); [1]) [%] | Binding assay (membrane) % inhibition (10 μM) (human Edg-1 (S1P1); [1]) [%] | melting point [°C] | IC50 (human Edg-1 (S1P1)) [µM] | inhibition at 10 µM (human Edg-1 (S1P1); [2]) [%] | SMILES
 |  |  |  | 71.7 | CCn1c(Oc2cccc(N3CCN(C)CC3)c2)nnc1[C@@H](C)NS(=O)(=O)c1ccc(Cl)c(S(N)(=O)=O)c1 [Compound 654]
 |  |  |  | 94.9 | CCn1c(Oc2cccc(N3CCN(C)CC3)c2)nnc1[C@@H](C)NS(=O)(=O)c1ccc(Br)c(C(F)(F)F)c1 [Compound 657]
 |  |  |  | 80.4 | CCn1c(Oc2cccc(N3CCN(C)CC3)c2)nnc1[C@@H](C)NS(=O)(=O)c1cc(Br)cc(C(F)(F)F)c1 [Compound 658]
 |  |  |  | 95.4 | CCn1c(Oc2cccc(N3CCN(C)CC3)c2)nnc1[C@@H](C)NS(=O)(=O)c1csc2ccccc12 [Compound 662]
 |  |  |  | 98.6 | CCn1c(Oc2cccc(N3CCN(C)CC3)c2)nnc1[C@@H](C)NS(=O)(=O)c1ccc2cc(C)ccc2c1 [Compound 668]
 |  |  | ≤ 0.01 | 101 | CCC(NS(=O)(=O)c1ccc2c(Cl)cccc2c1)c1nnc(Oc2cccc(N3CCN(C)CC3)c2)n1CC (stereo not drawn) [Compound 671]
 |  |  |  | 103 | CCn1c(Oc2cccc(N3CCN(C)CC3)c2)nnc1[C@@H](C)NS(=O)(=O)c1ccc2c(c1)CCO2 [Compound 672]
 |  |  |  | 62 | CCn1c(Oc2cccc(N3CCN(C)CC3)c2)nnc1[C@@H](C)NS(=O)(=O)c1ccc2c(c1)CCC(C)(C)O2 [Compound 673]
 |  |  |  | 97 | CCn1c(Oc2cccc(N3CCN(C)CC3)c2)nnc1[C@@H](C)NS(=O)(=O)c1ccc2c(c1)OCCCO2 [Compound 674]
 |  |  |  | 96.6 | CCn1c(Oc2cccc(N3CCN(C)CC3)c2)nnc1[C@@H](C)NS(=O)(=O)c1ccc2c(c1)OCO2 [Compound 675]
 |  |  |  | 92.6 | CCn1c(Oc2cccc(N3CCN(C)CC3)c2)nnc1[C@@H](C)NS(=O)(=O)c1ccc2c(c1)C(C)(C)CCC2(C)C [Compound 676]
 |  |  |  | 60.8 | CCn1c(Oc2cccc(N3CCN(C)CC3)c2)nnc1[C@@H](C)NS(=O)(=O)c1ccc2c(c1)CCN2C(C)=O [Compound 677]
 |  |  | 0.0102 | 97.4 | CCn1c(Oc2cccc(N3CCN(C)CC3)c2)nnc1[C@@H](C)NS(=O)(=O)c1ccc2c(c1)CCC2 [Compound 678]
 |  |  |  | 104 | CCn1c(Oc2cccc(N3CCN(C)CC3)c2)nnc1[C@@H](C)NS(=O)(=O)c1ccc2oc(=O)ccc2c1 [Compound 679]
 |  | 169.5 to 171.5 |  |  | CCn1c(Oc2ccc(F)cc2)nnc1[C@@H](C)N(CC(=O)O)S(=O)(=O)c1ccc(Cl)c(Cl)c1 [Compound 684]
 |  |  |  | 80.1 | CCn1c(Oc2ccc(F)cc2)nnc1C(NS(=O)(=O)c1ccc(Cl)c(Cl)c1)C(F)(F)F (stereo not drawn) [Compound 687, 3,4-Dichloro-N-[1-[4-ethyl-5-(4-fluorophenoxy)-4H-[1,2,4]triazol-3-yl]-2,2,2-trifluoroethyl]-benzenesulfonamide]
 |  |  |  | 92.7 | CCn1c(Oc2ccc(F)cc2)nnc1[C@@H](CF)NS(=O)(=O)c1ccc(Cl)c(Cl)c1 [Compound 689]
 |  |  | 0.0023 |  | CCn1c(Oc2cccc(N3CCN(C(C)=O)CC3)c2)nnc1[C@@H](C)NS(=O)(=O)c1ccc2c(Cl)cccc2c1 [Compound 698]
